Experimental data: patent US11976058B2, “Aromatic derivatives, preparation methods, and medical uses thereof” (Bioardis LLC, priority 2019, dated 2024)
Where two headings read alike, the source gives them in different places.

What was measured:
[1] = test system: MAPK phosphorylation in Hep3B cells stimulated with FGF19; assay: FGFR4 pMAPK AlphaLISA SureFire Ultra assay; type: cell-based; settings: serum-starved, compound 1 hour, FGF19 100 ng/ml for 4 hours, read-out: Potency (IC50), FGFR4 pMAPK AlphaLISA
From the text: (§1) Cell line: Hepatocellular carcinoma cell line Hep3B (ATCC, Cat #HB-8064).
In normal liver, circulating FGF19 drives liver cell proliferation and regulates bile acid production. However aberrant expression of FGF19 in the liver drives HCC tumorigenesis, upregulates MAPK phosphorylation in FGF19-amplified malignant liver cells. AlphaScreen SureFire technology allows the detection of phosphorylated proteins in cellular lysates in a highly sensitive, quantitative assay. In these assays, sandwich antibody complexes, which are only formed in the presence of analyte, are captured by AlphaScreen Donor and Acceptor beads, bringing them into close proximity. The excitation of the Donor bead provokes the release of singlet oxygen molecules that triggers a cascade of energy transfer in the Acceptor beads, resulting in the emission of light at 520-620 nm.
Hep3B cells were plated at a density of 1×10^4/ml cells in a 96-well plate (Corning #3599), with 100 uL per well of MEM Medium (Gibco Cat #11095-080) supplemented with 10% fetal bovine serum; 1% Penicillin-Streptomycin, and cultured overnight at 37° C., 5% CO2. Starve Hep3B cells in serum-free medium (SFM) supplemented with 0.2% BSA and incubate the cells again overnight at 37° C., 5% CO2. Various concentrations of the test compound (prepared in 2x SFM) were added to the wells of the cell plate and then incubated for 1 hour at 37° C., 5% CO2. 50 μL of FGF19 in SFM was added to each well of the cell plate with a final FGF19 concentration of 100 ng/ml, and cells treated with FGF19 were stimulated for 4 hours at 37° C., 5% CO2. 5 μL of freshly prepared Donor Mix and Acceptor Mix were sequentially added to the cell plate, each followed with 1 hour of incubation at 25° C., 5% CO2. Read the cell plate on an Alpha Technology-compatible plate reader at 570 nm AlphaScreen, using standard AlphaLISA settings. The percent (%) inhibition=((ZPE−Alpha-Signal)/(ZPE−HPE))*100% where the meanings of HPE and ZPE are as provided below.
HPE: Hundred Percent Effect, negative control well without FGF19 nor compound. Final concentration of DMSO is 0.1%.
ZPE: Zero Percent Effect, positive control well without compound. Final concentration of FGF19 is 100 ng/mL, DMSO is 0.1%.
The concentrations and percent inhibition values for a test compound were plotted and the concentration of the compound required to achieve 50% inhibition (IC50) was determined with a four-parameter logistic dose response equation. Dose-response curves were generated using Prism (GraphPad Software, La Jolla, CA, US) to calculate IC50 values for each compound tested.

human FGFR4 = target: T1, human FGFR4 (Homo sapiens, UniProt P22455); assay: FGFR4 enzymatic assay (HTRF KinEASE-TK); type: biochemical; settings: wild-type human FGFR4 cytoplasmic domain (460-802), GST-tag; 60 min preincubation at 25° C.; ATP 200 μM; read-out: Potency (IC50), FGFR4 enzymatic assay
T1 construct: human FGFR4 cytoplasmic domain (460-802); GST (N); purchased Carna Biosciences 08-136
Procedure: The ability of compounds to inhibit human FGFR4 tyrosine kinase activities was determined using a commercially available HTRF® KinEASE™-TK kit (CISBIO, Cat #62TK0PEC) according to the manufacturer's protocol. Wild-type human FGFR4 cytoplasmic domain (460-802) with N-terminal GST-tag was purchased from Carna Biosciences (Carna, Cat #08-136) and used in the kinase enzymatic assay. This assay, run in a 384-well plate format, is a generic method for measuring tyrosine kinase activities using one substrate and a universal detection system. It involves two steps: (1) Enzymatic step: the biotin labeled TK Substrate is incubated with the kinase and then ATP is added to start the enzymatic reaction; during this step, FGFR4 will phosphorylate the TK Substrate-biotin. (2) Detection step: The TK-Antibody labeled with Eu^3+-Cryptate can recognize the phosphorylated TK Substrate-biotin. When the streptavidin-XL665 conjugate binds the biotin, a FRET signal will be detected. Briefly, human FGFR4 (0.25 μg/ml) in the enzymatic buffer solutions (250 mM HEPES, pH7.0, 0.1% NaN3, 0.05% BSA, 0.5 mM Orthovanadate) were mixed with various concentrations of the test compound (dissolved in 100% DMSO). These solutions were incubated for 60 min at 25° C., and subsequently a mixture of substrate peptide and ATP was added with the final peptide and ATP concentrations at 0.3 μM and 200 μM respectively. The final reaction mixture of enzyme-substrate-ATP-compound was incubated for 40 min at 37° C. Meanwhile the detection mixture containing the TK-antibody and Streptavidin-XL665 diluted in the detection buffer (50 mM HEPES, pH7.0, with additives) was prepared, and added to the reaction mixture at final concentrations of 25 nM and 18.5 nM respectively. After incubation for 60 min at 25° C., the FRET signal of the final solution was measured at 665 nm and 612 nm emissions on a TECAN Spark 10M instrument (TECAN). The percent (%) inhibition at each concentration of a compound was calculated relative to the FRET signal in the Max and Min control wells contained within each assay plate. The Max control wells contained enzyme and substrate as 0% inhibition, and the Min control wells only contained substrate without enzyme as 100% inhibition. The concentrations and percent inhibition values for a test compound are plotted and the concentration of the compound required to achieve 50% inhibition (IC50) was determined with a four-parameter logistic dose response equation. Dose-response curves were generated using Prism (GraphPad Software, La Jolla, CA, US) to calculate IC50 values for each compound tested.

Hep3B cells = assay: Cell-based FGFR4 proliferation assay (CellTiter-Glo); settings: incubated with test compound for 3 days, CellTiter-Glo luminescence, read-out: Potency (IC50), Hep3B cell proliferation
Procedure: Hepatocellular carcinoma cell line Hep3B (ATCC, Cat #HB-8064) were cultured at 37° C., 5% CO2 in ATCC-formulated Eagle's Minimum Essential Medium supplemented with 10% fetal bovine serum; 1% Penicillin-Streptomycin.
as §1
In this assay, Hep3B cells are seeded in 384-well microplates, and after exposure to experimental compounds for […], CellTiter-Glo® Luminescent Cell Viability Assay kit (Promega, Cat #G7572) are used to determine the number of viable cells in the culture based on quantitation of the ATP present, which signals the presence of metabolically active cells. Luminescent signal is proportional to the amount of ATP present. The amount of ATP is directly proportional to the number of cells present in the culture, allowing drug-induced effects on cell proliferation to be measured.
Hep3B cells were plated at a density of 4×10^4/ml cells in a 384-well black/clear microplate with 20 μL per well of MEM Medium (Gibco Cat. #11095-080) supplemented with 10% fetal bovine serum; 1% Penicillin-Streptomycin, and cultured overnight at 37° C., 5% CO2. Various concentrations of the test compound (dissolved in 100% DMSO) were added to the wells of the cell plate. The cells were incubated with the test compound for 3 days at 37° C., 5% CO2. 5 μL of CellTiter-Glo® Reagent was added to each well of the cell plate. The cell plate was incubated for 5 min at 25° C. on a plate shaker (IKA MTS 2/4) at 300 rpm. Luminescence signals were read on a TECAN Spark 10M instrument (TECAN). […] The concentrations and percent inhibition values for a test compound were plotted and the concentration of the compound required to achieve 50% inhibition (IC50) is determined with a four-parameter logistic dose response equation. Dose-response curves were generated using Prism (GraphPad Software, La Jolla, CA, US) to calculate IC50 values for each compound tested.

T1 sequence (P22455 460-802): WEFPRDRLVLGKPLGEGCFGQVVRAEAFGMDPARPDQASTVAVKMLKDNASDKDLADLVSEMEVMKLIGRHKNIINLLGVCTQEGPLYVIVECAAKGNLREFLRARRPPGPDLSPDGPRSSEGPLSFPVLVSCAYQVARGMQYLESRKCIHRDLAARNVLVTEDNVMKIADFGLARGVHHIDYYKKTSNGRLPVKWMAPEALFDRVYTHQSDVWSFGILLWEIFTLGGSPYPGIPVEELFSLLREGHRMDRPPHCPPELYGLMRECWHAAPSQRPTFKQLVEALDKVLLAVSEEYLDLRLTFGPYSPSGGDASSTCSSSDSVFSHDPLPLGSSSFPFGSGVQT

C=CC(=O)Nc1cnn(C)c1-c1n[nH]c2c1CCC(c1c(F)c(OC)cc(OC)c1F)C2 (single isomer, unassigned) [Compound S1-P1, N-(5-(6-(2,6-difluoro-3,5-dimethoxyphenyl)-4,5,6,7-tetrahydro-1H-indazol-3-yl)-1-methyl-1H-pyrazol-4-yl)acrylamide]
IC50 ([1]; Homo sapiens, Hep3B): < 0.01 µM
IC50 (human FGFR4): < 0.01 µM
IC50 (Hep3B cells; Homo sapiens, Hep3B, 72 h): 0.01 to 0.1 µM

C=CC(=O)Nc1cnn(C)c1-c1n[nH]c2c1CCC(c1c(F)c(OC)cc(OC)c1F)C2 (single isomer, unassigned) [Compound S1-P2, N-(5-(6-(2,6-difluoro-3,5-dimethoxyphenyl)-4,5,6,7-tetrahydro-1H-indazol-3-yl)-1-methyl-1H-pyrazol-4-yl)acrylamide]
IC50 [1]: < 0.01 µM
IC50 (human FGFR4): < 0.01 µM
IC50 (Hep3B cells): 0.01 to 0.1 µM

C=CC(=O)Nc1ncn(C)c1-c1n[nH]c2c1CCC(c1c(F)c(OC)cc(OC)c1F)C2 (single isomer, unassigned) [Compound S3-P1, N-(5-(6-(2,6-Difluoro-3,5-dimethoxyphenyl)-4,5,6,7-tetrahydro-1H-indazol-3-yl)-1-methyl-1H-imidazol-4-yl) Acrylamide]
IC50 (human FGFR4): > 0.1 µM
IC50 (Hep3B cells; Homo sapiens, Hep3B, 72 h): > 0.1 µM

C=CC(=O)Nc1ncn(C)c1-c1n[nH]c2c1CCC(c1c(F)c(OC)cc(OC)c1F)C2 (single isomer, unassigned) [Compound S3-P2, N-(5-(6-(2,6-Difluoro-3,5-dimethoxyphenyl)-4,5,6,7-tetrahydro-1H-indazol-3-yl)-1-methyl-1H-imidazol-4-yl) Acrylamide]
IC50 ([1]; Homo sapiens, Hep3B): > 0.1 µM
IC50 (human FGFR4): 0.01 to 0.1 µM
IC50 (Hep3B cells): > 0.1 µM

C=CC(=O)Nc1cnn(C)c1-c1n[nH]c2c1CCC[C@@H](c1c(F)c(OC)cc(OC)c1F)C2 (single isomer, unassigned) [Compound S4-P1]
IC50 ([1]; Homo sapiens, Hep3B): < 0.01 µM
IC50 (human FGFR4): < 0.01 µM
IC50 (Hep3B cells; Homo sapiens, Hep3B, 72 h): < 0.01 µM

C=CC(=O)Nc1cnn(C)c1-c1n[nH]c2c1COC(c1c(F)c(OC)cc(OC)c1F)C2 (single isomer, unassigned) [Compound S6-P1, N-(5-(6-(2,6-difluoro-3,5-dimethoxyphenyl)-1,4,6,7-tetrahydropyrano[4,3-c]pyrazol-3-yl)-1-methyl-1H-pyrazol-4-yl) acrylamide]
IC50 (human FGFR4): > 0.1 µM
IC50 (Hep3B cells; Homo sapiens, Hep3B, 72 h): > 0.1 µM

C=CC(=O)Nc1cnn(C)c1-c1n[nH]c2c1COC(c1c(F)c(OC)cc(OC)c1F)C2 (single isomer, unassigned) [Compound S6-P2, N-(5-(6-(2,6-difluoro-3,5-dimethoxyphenyl)-1,4,6,7-tetrahydropyrano[4,3-c]pyrazol-3-yl)-1-methyl-1H-pyrazol-4-yl) acrylamide]
IC50 ([1]; Homo sapiens, Hep3B): 0.01 to 0.1 µM
IC50 (human FGFR4): 0.01 to 0.1 µM
IC50 (Hep3B cells): > 0.1 µM

[2H]C([2H])([2H])Oc1cc(OC([2H])([2H])[2H])c(F)c(C2CCc3c(-c4c(NC(=O)C=C)cnn4C)n[nH]c3C2)c1F (single isomer, unassigned) [Compound S8-P1, N-(5-(6-(2,6-difluoro-3,5-bis(methoxy-d3)phenyl)-4,5,6,7-tetrahydro-1H-indazol-3-yl)-1-methyl-1H-pyrazol-4-yl) acrylamide]
IC50 ([1]; Homo sapiens, Hep3B): < 0.01 µM
IC50 (human FGFR4): < 0.01 µM
IC50 (Hep3B cells; Homo sapiens, Hep3B, 72 h): 0.01 to 0.1 µM

C=CC(=O)Nc1c[nH]nc1-c1n[nH]c2c1CCC(c1c(F)c(OC)cc(OC)c1F)C2 (single isomer, unassigned) [Compound S15-P2, N-(3-(6-(2,6-difluoro-3,5-dimethoxyphenyl)-4,5,6,7-tetrahydro-1H-indazol-3-yl)-1H-pyrazol-4-yl)acrylamide]
IC50 (human FGFR4): < 0.01 µM
IC50 (Hep3B cells): < 0.01 µM

[2H]C([2H])([2H])n1ncc(NC(=O)C=C)c1-c1n[nH]c2c1CCC(c1c(F)c(OC)cc(OC)c1F)C2 (single isomer, unassigned) [Compound S16-P2, N-(5-(6-(2,6-difluoro-3,5-dimethoxyphenyl)-4,5,6,7-tetrahydro-1H-indazol-3-yl)-1-(methyl-d3)-1H-pyrazol-4-yl)acrylamide]
IC50 (human FGFR4): < 0.01 µM
IC50 (Hep3B cells): 0.01 to 0.1 µM

C=CC(=O)Nc1cn(CCN(C)C)nc1-c1n[nH]c2c1CCC[C@H](c1c(F)c(OC)cc(OC)c1F)C2 [Compound S31, (S)—N-(3-(7-(2,6-difluoro-3,5-dimethoxyphenyl)-1,4,5,6,7,8-hexahydrocyclohepta[c]pyrazol-3-yl)-1-(2-(dimethylamino)ethyl)-1H-pyrazol-4-yl)acrylamide]
IC50 (human FGFR4): < 0.01 µM
IC50 (Hep3B cells; Homo sapiens, Hep3B, 72 h): 0.01 to 0.1 µM

C=CC(=O)Nc1cn(CCN(C)C)nc1-c1n[nH]c2c1CCC[C@@H](c1c(F)c(OC)cc(OC)c1F)C2 [Compound S32, (R)—N-(3-(7-(2,6-difluoro-3,5-dimethoxyphenyl)-1,4,5,6,7,8-hexahydrocyclohepta[c]pyrazol-3-yl)-1-(2-(dimethylamino)ethyl)-1H-pyrazol-4-yl)acrylamide]
IC50 (human FGFR4): < 0.01 µM
IC50 (Hep3B cells; Homo sapiens, Hep3B, 72 h): < 0.01 µM
